Patent publication US6589974B1, “Pyrazolyl benzyl ether derivatives containing a fluoromethoxyimino group and use thereof as pesticides” (Bayer Aktiengesellschaft, priority 1999, dated 2003)

Assays:
[1] = logP determination by HPLC (EEC Directive 79/831 Annex V.A8); type: physicochemical; conditions: for logP: HPLC, gradient method, acetonitrile/0.1% aqueous phosphoric acid
Procedure: The logP values were determined in accordance with EEC Directive 79/831 Annex V.A8 by HPLC (gradient method, acetonitrile/0.1% aqueous phosphoric acid).

Puccinia recondita [2] = experiment: Puccinia Test (wheat)/protective; type: in vivo; conditions: protective, application rate 250 g/ha, evaluation 10 days after inoculation
Procedure: Puccinia Test (wheat)/protective Solvent: 25 parts by weight of N,N-dimethylacetamide Emulsifier: 0.6 part by weight of alkylaryl polyglycol ether To produce a suitable preparation of active compound, 1 part by weight of active compound is mixed with the stated amounts of solvent and emulsifier, and the concentrate is diluted with water to the desired concentration. To test for protective activity, young plants are sprayed with the preparation of active compound at the stated application rate. After the spray coating has dried on, the plants are sprayed with a conidia suspension of Puccinia recondita. The plants remain in an incubation cabin at 20° C. and 100% relative atmospheric humidity for 48 hours. The plants are then placed in a greenhouse at a temperature of about 20° C. and a relative atmospheric humidity of 80% to promote the development of rust pustules.

[3] = tested on: larvae of the mustard beetle (Phaedon cochleariae); experiment: Phaedon Larvae Test; type: in vivo; conditions: cabbage leaves (Brassica oleracea) dipped, concentration of active compound 1000 ppm
Procedure: Phaedon Larvae Test Solvent: 30 parts by weight of acetone Emulsifier: 1 part by weight of alkylaryl polyglycol ether To produce a suitable preparation of active compound, 1 part by weight of active compound is mixed with the stated amounts of solvent and emulsifier, and the concentrate is diluted with emulsifier-containing water to the desired concentration. Cabbage leaves (Brassica oleracea) are treated by being dipped into the preparation of active compound of the desired concentration and are populated with larvae of the mustard beetle (Phaedon cochleariae) while the leaves are still moist. After the desired period of time, the kill in % is determined. 100% means that all beetle larvae have been killed; 0% means that none of the beetle larvae have been killed.

[4] = tested on: green peach aphid (Myzus persicae); experiment: Myzus Test; type: in vivo; conditions: broad bean seedlings (Vicia faba) dipped, concentration of active compound 1000 ppm
Procedure: Myzus Test Solvent: 30 parts by weight of acetone Emulsifier: 1 part by weight of alkylaryl polyglycol ether To produce a suitable preparation of active compound, 1 part by weight of active compound is mixed with the stated amounts of solvent and emulsifier, […], and the concentrate is diluted with emulsifier-containing water to the desired concentrations. Broad bean seedlings (Vicia faba) infested by the green peach aphid (Myzus persicae) are dipped into a preparation of active compound of the desired concentration and placed in a dish made of plastic. After the desired period of time, the kill in % is determined. 100% means that all animals have been killed; 0% means that none of the animals have been killed.

[5] = tested on: Erysiphe graminis f.sp. hordei; experiment: Erysiphe Test (barley)/protective; type: in vivo; conditions: protective, application rate 250 g/ha, evaluation 7 days after inoculation
Procedure: Erysiphe Test (barley)/protective Solvent: 25 parts by weight of N,N-dimethylacetamide Emulsifier: 0.6 part by weight of alkylaryl polyglycol ether To produce a suitable preparation of active compound, 1 part by weight of active compound is mixed with the stated amounts of solvent and emulsifier, and the concentrate is diluted with water to the desired concentration. To test for protective activity, young plants are sprayed with the preparation of active compound at the stated application rate. After the spray coating has dried on, the plants are dusted with spores of Erysiphe graminis f.sp. hordei. The plants are placed in a greenhouse at a temperature of about 20° C. and a relative atmospheric humidity of about 80% to promote the development of mildew pustules.

Puccinia recondita [6] = experiment: Puccinia Test (wheat)/curative; type: in vivo; conditions: curative, application rate 250 g/ha, evaluation 10 days after inoculation
Procedure: Puccinia Test (wheat)/curative Solvent: 25 parts by weight of N,N-dimethylacetamide Emulsifier: 0.6 part by weight of alkylaryl polyglycol ether To produce a suitable preparation of active compound, 1 part by weight of active compound is mixed with the stated amounts of solvent and emulsifier, and the concentrate is diluted with water to the desired concentration. To test for curative activity, young plants are sprayed with a conidia suspension of Puccinia recondita. The plants remain in an incubation cabin at 20° C. and 100% relative atmospheric humidity for 48 hours. The plants are then sprayed with the preparation of active compound at the stated application rate. The plants are placed in a greenhouse at a temperature of about 20° C. and a relative atmospheric humidity of about 80% to promote the development of rust pustules.

| SMILES | logP [1] | also measured |
| --- | --- | --- |
| COC(=O)C(=NOCF)c1ccccc1COc1ccn(-c2ccc(Cl)cc2)n1 [Example 1, methyl 2-[2-({[1-(4-chlorophenyl)-1H-pyrazol-3-yl]oxy}methyl)phenyl]-2-[(fluoromethoxy)imino]acetate] | – | chromatographic logP [1]: 3.86; efficacy (Puccinia recondita [2]): ≥ 98%; kill rate [3]: 100%; kill rate [4]: 95% |
| CNC(=O)C(=NOCF)c1ccccc1COc1ccn(-c2ccc(Cl)cc2)n1 [Example 2, 2-[2-({[1-(4-chlorophenyl)-1H-pyrazol-3-yl]oxy}methyl)phenyl]-2-[(fluoromethoxy)imino]-N-methylacetamide] | – | chromatographic logP [1]: 3.3; efficacy [5]: ≥ 98%; efficacy (Puccinia recondita [6]): ≥ 98% |
| CNC(=O)C(=NOCF)c1ccccc1OCc1ccn(-c2ccc(F)cc2)n1 [Example 3] | 2.91 | – |
| COC(=O)C(=NOCF)c1ccccc1OCc1ccn(-c2ccc(C(C)C)cc2)n1 [Example 4] | 4.38 | – |
| CNC(=O)C(=NOCF)c1ccccc1OCc1ccn(-c2cccc(Br)c2)n1 [Example 5] | 3.39 | – |
| CNC(=O)C(=NOCF)c1ccccc1OCc1ccn(-c2ccc(Br)cc2)n1 [Example 6] | 3.4 | – |
| CNC(=O)C(=NOCF)c1ccccc1OCc1ccn(-c2cc(Cl)cc(Cl)c2)n1 [Example 7] | 3.93 | – |
| COC(=O)C(=NOCF)c1ccccc1OCc1ccn(-c2ccccc2Cl)n1 [Example 8] | 3.53 | – |
| COC(=O)C(=NOCF)c1ccccc1OCc1ccn(-c2ccc(C#N)cc2)n1 [Example 9] | 3.18 | – |
| COC(=O)C(=NOCF)c1ccccc1OCc1ccn(-c2ccc(C)cc2)n1 [Example 10] | 3.74 | – |
| COC(=O)C(=NOCF)c1ccccc1OCc1ccn(-c2ccc(Cl)cc2Cl)n1 [Example 11] | 4.09 | – |
| COC(=O)C(=NOCF)c1ccccc1OCc1ccn(-c2ccccc2Br)n1 [Example 12] | 3.54 | – |
| COC(=O)C(=NOCF)c1ccccc1OCc1ccn(-c2ccc(Br)cc2)n1 [Example 13] | 3.98 | – |
| COC(=O)C(=NOCF)c1ccccc1OCc1ccn(-c2ccccc2)n1 [Example 14] | 3.4 | – |
| COC(=O)C(=NOCF)c1ccccc1OCc1ccn(-c2cc(Cl)cc(Cl)c2)n1 [Example 15] | 4.52 | – |
| COC(=O)C(=NOCF)c1ccccc1OCc1ccn(-c2cccc(Br)c2)n1 [Example 16] | 3.98 | – |
| COC(=O)C(=NOCF)c1ccccc1OCc1ccn(-c2ccc(F)cc2)n1 [Example 17] | 3.47 | – |
| CNC(=O)C(=NOCF)c1ccccc1OCc1ccn(-c2ccccc2)n1 [Example 18] | 2.83 | – |
| CNC(=O)C(=NOCF)c1ccccc1OCc1ccn(-c2ccc(Cl)cc2Cl)n1 [Example 19] | 3.5 | – |

| SMILES | logP [1] | also measured |
| --- | --- | --- |
| COC(=O)C(=NOCF)c1ccccc1OCc1ccn(-c2ccc(C(C)(C)C)cc2)n1 [Example 21] | 4.63 | – |
| CNC(=O)C(=NOCF)c1ccccc1OCc1ccn(-c2ccccc2Cl)n1 [Example 22] | 2.96 | – |
| CNC(=O)C(=NOCF)c1ccccc1OCc1ccn(-c2ccc(C(C)(C)C)cc2)n1 [Example 23] | 4.04 | – |
| COC(=O)C(=NOCF)c1ccccc1OCc1ccn(-c2ccccc2F)n1 [Example 25] | 3.51 | – |
| COC(=O)C(=NOCF)c1ccccc1OCc1ccn(-c2ccc(F)cc2F)n1 [Example 26] | 3.52 | – |
| COC(=O)C(=NOCF)c1ccccc1OCc1ccn(-c2cccc(Cl)c2Cl)n1 [Example 27] | 3.9 | – |
| COC(=O)C(=NOCF)c1ccccc1OCc1ccn(-c2ccc(C)c(C)c2)n1 [Example 28] | 3.92 | – |
| COC(=O)C(=NOCF)c1ccccc1OCc1ccn(-c2cc(Cl)ccc2Cl)n1 [Example 29] | 4.5 | – |
| COC(=O)C(=NOCF)c1ccccc1OCc1ccn(-c2cccc(C)c2)n1 [Example 30] | 3.73 | – |
| CNC(=O)C(=NOCF)c1ccccc1OCc1ccn(-c2cccc(C)c2)n1 [Example 31] | 3.15 | – |
| CNC(=O)C(=NOCF)c1ccccc1OCc1ccn(-c2ccccc2F)n1 [Example 32] | 2.93 | – |
| CNC(=O)C(=NOCF)c1ccccc1OCc1ccn(-c2ccc(F)cc2F)n1 [Example 33] | 3.02 | – |
| CNC(=O)C(=NOCF)c1ccccc1OCc1ccn(-c2cccc(Cl)c2Cl)n1 [Example 34] | 3.31 | – |
| CNC(=O)C(=NOCF)c1ccccc1OCc1ccn(-c2cc(Cl)ccc2Cl)n1 [Example 36] | 3.43 | – |
| COC(=O)C(=NOCF)c1ccccc1OCc1ccn(-c2cccc(Cl)c2)n1 [Example 37] | 3.88 | – |
| CNC(=O)C(=NOCF)c1ccccc1OCc1ccn(-c2ccc(C(C)C)cc2)n1 [Example 38] | 3.83 | – |
| CNC(=O)C(=NOCF)c1ccccc1OCc1ccn(-c2ccc(C)cc2)n1 [Example 41] | 3.14 | – |
| CNC(=O)C(=NOCF)c1ccccc1OCc1ccn(-c2ccc(C#N)cc2)n1 [Example 42] | 2.64 | – |
| CNC(=O)C(=NOCF)c1ccccc1OCc1ccn(-c2cccc(Cl)c2)n1 [Example 43] | 3.3 | – |
